# Key:
# Type in all cases: cell-based
# [1] = system: Leishmania donovani axenic amastigote; test: In vitro assay for growth inhibition of Leishmania donovani axenic amastigote (Cell TiterGlo luminescence); conditions: Leishmania donovani, L. donovani axenic amastigotes in vitro; read-out: L. donovani amastigotes EC50
# In short: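 Compound-treated wells received 9600 axenic amastigotes in RPMI 1640-based medium at pH 5.5 (37 °C, 5% CO2). Growth measured as ATP luminescence (CellTiter-Glo) after 2-day incubation; DMSO and reference compounds served as controls.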
# [2] = system: Trypanosoma cruzi amastigotes cultured in 3T3 fibroblast cells; test: Assay for growth inhibition of kinetoplastid parasite Trypanosoma cruzi (beta-galactosidase Tulahuen strain, CPRG readout); conditions: Trypanosoma cruzi, Fibroblast, T. cruzi amastigotes in 3T3 fibroblast cells; read-out: Buckner infectious T. cruzi EC50
# Text: Assay for Growth Inhibition of Kinetoplastid Parasite Trypanosoma cruzi
# Compounds of the invention can be assayed for inhibitor activity against Trypanosoma cruzi amastigotes cultured in 3T3 fibroblast cells. The assay is done using the mammalian stage (amastigotes) of T. cruzi that replicates in the intracellular space of host cells. The host cells are initially infected with the culture-derived trypomastigotes that rapidly invade and then divide as amastigotes. The protocol uses the Tulahuen strain of T. cruzi that has been engineered to express the E. coli beta-galactosidase gene (Lac-Z) (Antimicr. Agents Chemoth. 40:2592, 1996). This allows for a colorimetric readout by using the substrate CPRG and an absorbance plate reader.
# 3T3 fibroblast cells are re-suspended in RPMI-1640 medium without phenol red medium supplemented with 10% FBS (heat inactivated), 100 μg/ml penicillin, and 100 μg/ml streptomycin. Forty μL of suspension (1,000 cells) is dispensed into 384-well plates and incubated overnight at 37° C. temperature and in atmosphere containing 5% CO2. The following day, 100 nL of compounds of the invention in DMSO are added to plate wells containing 3T3 cells. At the same time control compounds (benznidazole and nifurtimox) and DMSO are added to plates to serve as the positive and negative controls, respectively. After that, 10 μL of media containing 10,000 T. cruzi trypomastigotes are added to each plate well and plates are placed back into incubators. After 6 day incubation, 10 μL of reagent solution (0.6 mM CPRG, 0.6% NP-40 in PBS) is added to plates and incubated at room temperature for 2 hours. Absorbance is then measured on SpectraMax GEMINI fluorimeter to determine relative number of T. cruzi cells present in each plate well.
# [3] = system: Trypanosoma brucei brucei (Lister 427) strain; test: Assay for growth inhibition against Trypanosoma brucei brucei (Cell TiterGlo ATP luminescence); conditions: Trypanosoma brucei, T. brucei brucei (Lister 427); read-out: T. Brucei (HAT) EC50
# Protocol: Assay for Growth Inhibition Against Trypanosoma brucei brucei
# The proliferation is quantified by the addition of Cell TiterGlo® (Promega®) a luminescent cell viability assay that measures the number of viable cells in culture based on the quantification of cellular ATP amount, which is an indicator of metabolically active cells.
# Trypanosoma brucei brucei (Lister 427) strain was grown in Hirumi 9 (HMI-9) media supplemented with 10% v/v fetal bovine serum (FBS) and 10% v/v serum plus. For measurement of cell proliferation inhibition, test compounds were three fold serially diluted in duplicates to 384-well white plates, resulting in 10 dilutions for each compound. A volume of 40 μL of T. b. brucei culture (10,000 parasites/mL) was added to each well, and the assay plates were incubated at 37° C. for 2 days in a CO2 incubator. Growth inhibition was monitored by measuring ATP levels, which, is used as a surrogate marker for growth. Relative luminescence units were measured using TECAN® M1000 after 30 min of adding 40 μl of Cell TiterGlo®. IC50 values were determined by analyzing the data using HELIOS software. IC50 is defined as the lowest concentration of the compound that inhibited 50% growth of the T. b. brucei wild type strain compared to untreated controls.
SMILES,EC50 [1] [nM],EC50 [2] [nM],EC50 [3] [nM]
"COC(=O)C12CC(C(=O)Nc3ccc(F)c(-n4cc5cc(C(C)C)cnc5n4)c3)(C1)C2 [Compound 120, methyl 3-({4-fluoro-3-[5-(propan-2-yl)-2H-pyrazolo[3,4-b]pyridin-2-yl]phenyl}carbamoyl)bicyclo[1.1.1]pentane-1-carboxylate]",5200,4300,1800
"CC(C)c1cnc2nn(-c3cc(NC(=O)N4CC(F)C4)ccc3F)cc2c1 [Compound 156, 3-fluoro-N-{4-fluoro-3-[5-(propan-2-yl)-2H-pyrazolo[3,4-b]pyridin-2-yl]phenyl}azetidine-1-carboxamide]",9.3,5.1,< 23
"C[C@H]1CN(c2cnc3nn(-c4cc(NC(=O)N5CC(F)C5)ccc4F)cc3c2)C[C@H](C)O1 [Compound 177, N-(3-{5-[(2S,6S)-2,6-dimethylmorpholin-4-yl]-2H-pyrazolo[3,4-b]pyridin-2-yl]-4-fluorophenyl)-3-fluoroazetidine-1-carboxamide]",27,55,< 23
"O=C(Nc1ccc(F)c(-n2cc3cc(N4CCS(=O)(=O)CC4)cnc3n2)c1)N1CC(F)C1 [Compound 178, N-{3-[5-(1,1-dioxo-1$|^6,4-thiomorpholin-4-yl)-2H-pyrazolo[3,4-b]pyridin-2-yl]-4-fluorophenyl}-3-fluoroazetidine-1-carboxamide]",160,1600,36
"CN1CCN(c2cnc3nn(-c4cc(NC(=O)N5CC(F)C5)ccc4F)cc3c2)CC1 [Compound 179, 3-fluoro-N-{4-fluoro-3-[5-(4-methylpiperazin-1-yl)-2H-pyrazolo[3,4-b]pyridin-2-yl]phenyl}azetidine-1-carboxamide]",410,43,< 23
"O=C(Nc1ccc(F)c(-n2cc3cc(N4CCn5ccnc5C4)cnc3n2)c1)N1CC(F)C1 [Compound 180, 3-fluoro-N-[4-fluoro-3-(5-{5H,6H,7H,8H-imidazo[1,2-a]pyrazin-7-yl}-2H-pyrazolo[3,4-b]pyridin-2-yl)phenyl}azetidine-1-carboxamide]",550,3900,38
"O=C(Nc1ccc(F)c(-n2cc3cc(N4CC(O)C4)cnc3n2)c1)N1CC(F)C1 [Compound 181, 3-fluoro-N-{4-fluoro-3-[5-(3-hydroxyazetidin-1-yl)-2H-pyrazolo[3,4-b]pyridin-2-yl]phenyl}azetidine-1-carboxamide]",25,820,< 23
"O=C(Nc1ccc(F)c(-n2cc3cc(-c4ccncc4)cnc3n2)c1)N1CC(F)C1 [Compound 182, 3-fluoro-N-(4-fluoro-3-(5-(pyridin-4-yl)-2H-pyrazolo[3,4-b]pyridin-2-yl)phenyl)azetidine-1-carboxamide]",7.6,6.7,< 23
"O=C(Nc1ccc(F)c(-n2cc3cc(N4CCC5(COC5)C4)cnc3n2)c1)N1CC(F)C1 [Compound 183, 3-fluoro-N-[4-fluoro-3-(5-{2-oxa-6-azaspiro[3.4]octan-6-yl}-2H-pyrazolo[3,4-b]pyridin-2-yl)phenyl}azetidine-1-carboxamide]",12,55,< 23
"[2H]C([2H])([2H])N(C(=O)Nc1ccc(F)c(-n2cc3cc(C(C)C)cnc3n2)c1)C([2H])([2H])[2H] [Compound 219, 1-{4-fluoro-3-[5-(propan-2-yl)-2H-pyrazolo[3,4-b]pyridin-2-yl]phenyl}-3,3-bis(^2H3)methylurea]",34,15,17
"CC(C)c1cnc2nn(-c3cc(NC(=O)N4CCC5(CC5)C4)ccc3F)cc2c1 [Compound 220, N-{4-fluoro-3-[5-(propan-2-yl)-2H-pyrazolo[3,4-b]pyridin-2-yl]phenyl}-5-azaspiro[2.4]heptane-5-carboxamide]",15,6,42
"CC(C)c1cnc2nn(-c3cc(NC(=O)N4CC[C@@H](C)C4)ccc3F)cc2c1 [Compound 221, (3R)-N-{4-fluoro-3-[5-(propan-2-yl)-2H-pyrazolo[3,4-b]pyridin-2-yl]phenyl}-3-methylpyrrolidine-1-carboxamide]",3,1,9
"CC(C)c1cnc2nn(-c3cc(NC(=O)N4CC5(CC5)C4)ccc3F)cc2c1 [Compound 222, N-{4-fluoro-3-[5-(propan-2-yl)-2H-pyrazolo[3,4-b]pyridin-2-yl]phenyl}-5-azaspiro[2.3]hexane-5-carboxamide]",80,45,73
"CC(C)c1cnc2nn(-c3cc(NC(=O)N4C[C@H]5C[C@H]5C4)ccc3F)cc2c1 [Compound 223, (1R,5S)-N-{4-fluoro-3-[5-(propan-2-yl)-2H-pyrazolo[3,4-b]pyridin-2-yl]phenyl}-3-azabicyclo[3.1.0]hexane-3-carboxamide]",82,37,64
"CCN(C)C(=O)Nc1ccc(F)c(-n2cc3cc(C(C)C)cnc3n2)c1 [Compound 224, 3-ethyl-1-{4-fluoro-3-[5-(propan-2-yl)-2H-pyrazolo[3,4-b]pyridin-2-yl]phenyl}-3-methylurea]",111,46,67
"CO[C@@H]1CCN(C(=O)Nc2ccc(F)c(-n3cc4cc(C(C)C)cnc4n3)c2)C1 [Compound 225, (3R)-N-{4-fluoro-3-[5-(propan-2-yl)-2H-pyrazolo[3,4-b]pyridin-2-yl]phenyl}-3-methoxypyrrolidine-1-carboxamide]",37,50,238
"CC(C)c1cnc2nn(-c3cc(NC(=O)N4CC5(CCC5)C4)ccc3F)cc2c1 [Compound 226, N-{4-fluoro-3-[5-(propan-2-yl)-2H-pyrazolo[3,4-b]pyridin-2-yl]phenyl}-2-azaspiro[3.3]heptane-2-carboxamide]",134,129,343
"CC(C)c1cnc2nn(-c3cc(NC(=O)N(C)CC(F)(F)F)ccc3F)cc2c1 [Compound 227, 1-{4-fluoro-3-[5-(propan-2-yl)-2H-pyrazolo[3,4-b]pyridin-2-yl]phenyl}-3-methyl-3-(2,2,2-trifluoroethyl)urea]",30,11,59
"CC(C)c1cnc2nn(-c3cc(NC(=O)N(C)C)ccc3F)cc2c1 [Compound 228, 1-{4-fluoro-3-[5-(propan-2-yl)-2H-pyrazolo[3,4-b]pyridin-2-yl]phenyl}-3,3-dimethylurea]",31,10,30
"CC(C)c1cnc2nn(-c3cc(NC(=O)N4CCN5CCC4CC5)ccc3F)cc2c1 [Compound 229, N-{4-fluoro-3-[5-(propan-2-yl)-2H-pyrazolo[3,4-b]pyridin-2-yl]phenyl}-1,4-diazabicyclo[3.2.2]nonane-4-carboxamide]",25000,15600,12500
"CC1(O)CN(c2cnc3nn(-c4cc(NC(=O)N5CC(F)C5)ccc4F)cc3c2)C1 [Compound 251, 3-fluoro-N-{4-fluoro-3-[5-(3-hydroxy-3-methylazetidin-1-yl)-2H-pyrazolo[3,4-b]pyridin-2-yl]phenyl}azetidine-1-carboxamide]",24,367,5

# Source: patent US11384078B2, “5,6-fused-bicyclic compounds and compositions for the treatment of parasitic diseases” (NOVARTIS AG, priority 2017, dated 2022)
